System: human retinal endothelial cells (HREC)
Assay: Testing 5: VEGF-induced HREC proliferation (MTS assay), echistatin and Avastin alone and in combination
Format: cell-based
Description: HREC were first cultured overnight in a 96-well plate coated with fibronectin. The next day, cells were serum-starved for 2 h before treatment. Medium containing different agents as shown in table below was pre-incubated for 1 h before being added to cells. The cells were cultured at 37° C., 5% CO2, and 95% humidity for another 3 days. After that, cell proliferation was estimated by the MTS assay. […] Normal human IgG was also added to different groups in such a way that all groups contained the same amounts of IgG protein.
A 96-well plate was coated with human fibronectin (10 μg/mL) for 5 hours. HREC were collected from flasks by EDTA-trypsin treatment and re-suspended in 10% FBS CS-C medium at 15,000 cells/mL. Cells (200 μL) were added to the plate and cultured overnight at 37° C., 5% CO2, and 95% humidity. Next day, the medium was removed and 200 μl/well serum free medium was added.
All medium solutions were incubated for 1 h at 37° C. After carefully aspirating the medium from cells, […], of the medium containing the different agents was added into appropriate wells. The cells were cultured for another 3 days.
At the end of incubation, the medium was carefully aspirated from cells and 120 μl of MTS working solution was added into all wells including blank wells (without cells). The plate was incubated at 37° C., 5% CO2, and 95% humidity for 1 hour and then absorbance was read by a plate reader at 490 nm wavelength.
Median optical density (OD) was generated from different groups. Data were expressed as mean±SEM of the OD values. Statistical analysis was performed using a one or two-way ANOVA using Box-Cox transformed data if needed, and P<0.05 was considered statistically significant. […] All the data from the individual wells were fitted to a re-parameterized four-parameter logistic equation to obtain IC50 using similar methodology as that previously described and utilizing the statistical analysis software JMP (SAS Institute, Cary, N.C.).

bevacizumab [Avastin, reference compound]
IC50 ± SE of Avastin alone on inhibiting VEGF-induced proliferation of HREC (VEGF 10 ng/mL, estimated): 0.021 µg/mL | Inhibition of VEGF-induced HREC proliferation, agent alone (echistatin 2 nM, Avastin 0.625-10 ng/ml (significant at 10 ng/ml), VEGF 10 ng/mL): dose-dependent inhibition | HREC proliferation under basal conditions (echistatin 2 nM, Avastin 0.625-10 ng/ml, no VEGF): no effect
